From ChEMBL document CHEMBL4316624, “Analyzing the role of cannabinoids as modulators of Wnt/β-catenin signaling pathway for their use in the management of neuropathic pain” (Bioorg Med Chem Lett, 2019)
The source made the active and inactive calls. No cut-off for these calls is given here.

Columns and labels:
HepG2 [1] = assay: Inhibition of Wnt/beta-catenin signaling pathway in human HepG2 cells assessed as reduction in TCF-dependent beta-catenin mediated transcription incubated for 24 hrs by Topflash reporter assay; type: cell-based
HepG2 [2] = assay: Cytotoxicity against human HepG2 cells assessed as reduction in cell viability incubated for 72 hrs by MTT assay; type: cell-based; conditions: HepG2, 72 h
HCT-116 [3] = assay: Cytotoxicity against human HCT116 cells assessed as reduction in cell viability incubated for 72 hrs by MTT assay; type: cell-based; conditions: HCT-116, 72 h
OVCAR [4] = assay: Cytotoxicity against human OVCAR cells assessed as reduction in cell viability incubated for 72 hrs by MTT assay; type: cell-based
OVCAR [5] = assay: Cytotoxicity against human OVCAR cells assessed as reduction in cell viability incubated for 24 to 72 hrs by MTT assay; type: ADME, cell-based
A549 [6] = assay: Cytotoxicity against human A549 cells assessed as reduction in cell viability incubated for 72 hrs by MTT assay; type: cell-based; conditions: A549, 72 h
PC-3 [7] = assay: Cytotoxicity against human PC3 cells assessed as reduction in cell viability incubated for 24 to 72 hrs by MTT assay; type: cell-based
A549 [8] = assay: Cytotoxicity against human A549 cells assessed as reduction in cell viability incubated for 24 to 72 hrs by MTT assay; type: cell-based
SH-SY5Y [9] = assay: Cytotoxicity against human SH-SY5Y cells assessed as reduction in cell viability incubated for 24 to 72 hrs by MTT assay; type: cell-based
SH-SY5Y [10] = assay: Cytotoxicity against human SH-SY5Y cells assessed as reduction in cell viability incubated for 72 hrs by MTT assay; type: cell-based
HCT-116 [11] = assay: Cytotoxicity against human HCT116 cells assessed as reduction in cell viability incubated for 24 to 72 hrs by MTT assay; type: cell-based
PC-3 [12] = assay: Cytotoxicity against human PC3 cells assessed as reduction in cell viability incubated for 72 hrs by MTT assay; type: cell-based; conditions: PC-3, 72 h
MCF7 [13] = assay: Cytotoxicity against human MCF7 cells assessed as reduction in cell viability incubated for 72 hrs by MTT assay; type: cell-based; conditions: MCF7, 72 h
HepG2 [14] = assay: Cytotoxicity against human HepG2 cells assessed as reduction in cell viability incubated for 24 to 72 hrs by MTT assay; type: cell-based
MCF7 [15] = assay: Cytotoxicity against human MCF7 cells assessed as reduction in cell viability incubated for 24 to 72 hrs by MTT assay; type: cell-based
HepG2 [16] = assay: Inhibition of Wnt/beta-catenin signaling pathway in human HepG2 cells assessed as reduction in TCF-dependent beta-catenin mediated transcription at 5 to 40 uM incubated for 24 hrs by Topflash reporter assay; type: cell-based
HepG2 [17] = assay: Inhibition of Wnt/beta-catenin signaling pathway in human HepG2 cells assessed as reduction in TCF-dependent beta-catenin mediated transcription at 20 to 40 uM incubated for 24 hrs by Topflash reporter assay; type: cell-based

Row | SMILES | inhibition (HepG2 [1]) | IC50 (HepG2 [2]) | IC50 (HCT-116 [3]) | IC50 (OVCAR [4]) | Activity (OVCAR [5]) | IC50 (A549 [6]) | Activity (PC-3 [7]) | Activity (A549 [8]) | Activity (SH-SY5Y [9]) | IC50 (SH-SY5Y [10]) | Activity (HCT-116 [11]) | IC50 (PC-3 [12]) | IC50 (MCF7 [13]) | Activity (HepG2 [14]) | Activity (MCF7 [15]) | inhibition (HepG2 [16]) | inhibition (HepG2 [17])
1 | CC[C@@H](C(=O)[C@@H](C)[C@@H](O)[C@H](C)[C@@H]1O[C@@H]([C@@H](CC)C(=O)O)CC[C@@H]1C)[C@H]1O[C@]2(C=C[C@@H](O)[C@]3(CC[C@@](C)([C@H]4CC[C@](O)(CC)[C@H](C)O4)O3)O2)[C@H](C)C[C@@H]1C [SALINOMYCIN] | Dose-dependent effect | 24.5 µM | – | – | – | – | – | – | – | – | – | – | – | – | – | – | –
2 | C=C(C)[C@@H]1CCC(C)=C[C@H]1c1c(O)cc(CCC)cc1O [CANNABIDIVARIN] | Dose-dependent effect | 64 µM | 13 µM | 57 µM | Dose-dependent effect | 39 µM | Dose-dependent effect | Dose-dependent effect | Dose-dependent effect | 55 µM | Dose-dependent effect | 44 µM | 53 µM | Dose-dependent effect | Dose-dependent effect | – | –
3 | CCCCCc1cc(O)c2c(c1)OC(C)(C)c1ccc(C)cc1-2 [CANNABINOL] | – | 74 µM | 80 µM | 77 µM | Dose-dependent effect | 91 µM | Dose-dependent effect | Dose-dependent effect | Dose-dependent effect | 97 µM | Dose-dependent effect | 78 µM | 81 µM | Dose-dependent effect | Dose-dependent effect | inactive | –
4 | C=C(C)[C@@H]1CC[C@H]2O[C@H]2[C@H]1c1c(O)cc(CCCCC)cc1O | Dose-dependent effect | 53 µM | 15.3 µM | 56.8 µM | Dose-dependent effect | 45.2 µM | Dose-dependent effect | Dose-dependent effect | Dose-dependent effect | 51 µM | Dose-dependent effect | 17.6 µM | 47.2 µM | Dose-dependent effect | Dose-dependent effect | – | –
5 | C=C(C)[C@@H]1CCC(C)=C[C@H]1c1c(O)cc(CCCCC)cc1O [CANNABIDIOL] | Dose-dependent effect | 42.8 µM | 18 µM | 50 µM | Dose-dependent effect | 40 µM | Dose-dependent effect | Dose-dependent effect | Dose-dependent effect | 48 µM | Dose-dependent effect | 12 µM | 55 µM | Dose-dependent effect | Dose-dependent effect | – | –
6 | CCCc1cc(O)c2c(c1)OC(C)(C)[C@@H]1CCC(C)=C[C@@H]21 [TETRAHYDROCANNABIVARIN] | – | 75 µM | 83 µM | 75 µM | Dose-dependent effect | 90 µM | Dose-dependent effect | Dose-dependent effect | Dose-dependent effect | 95 µM | Dose-dependent effect | 79 µM | 80 µM | Dose-dependent effect | Dose-dependent effect | – | inactive
7 | CCCCCc1cc(O)c2c(c1)OC(C)(CCC=C(C)C)C=C2 (configuration not stated) [CANNABICHROMENE] | – | 60 µM | 60 µM | 65 µM | Dose-dependent effect | 60 µM | Dose-dependent effect | Dose-dependent effect | Dose-dependent effect | 77 µM | Dose-dependent effect | 40 µM | 40 µM | Dose-dependent effect | Dose-dependent effect | – | inactive
8 | CCCCCc1cc(O)c2c(c1)OC(C)(C)[C@@H]1CCC(C)=C[C@@H]21 [DRONABINOL] | – | 59 µM | 42 µM | 63 µM | Dose-dependent effect | 45 µM | Dose-dependent effect | Dose-dependent effect | Dose-dependent effect | 50 µM | Dose-dependent effect | 65 µM | 57 µM | Dose-dependent effect | Dose-dependent effect | – | inactive
